How the values were obtained:
[1] = target: T1, PTGS2 (COX-2) (Homo sapiens, UniProt P35354); experiment: PTGS2; format: biochemical, bovine/human; conditions: COX-2 Inhibition Mean IC50, mean of replicates 1-2 (Fig 16g)
T1 sequence (P35354 18-604): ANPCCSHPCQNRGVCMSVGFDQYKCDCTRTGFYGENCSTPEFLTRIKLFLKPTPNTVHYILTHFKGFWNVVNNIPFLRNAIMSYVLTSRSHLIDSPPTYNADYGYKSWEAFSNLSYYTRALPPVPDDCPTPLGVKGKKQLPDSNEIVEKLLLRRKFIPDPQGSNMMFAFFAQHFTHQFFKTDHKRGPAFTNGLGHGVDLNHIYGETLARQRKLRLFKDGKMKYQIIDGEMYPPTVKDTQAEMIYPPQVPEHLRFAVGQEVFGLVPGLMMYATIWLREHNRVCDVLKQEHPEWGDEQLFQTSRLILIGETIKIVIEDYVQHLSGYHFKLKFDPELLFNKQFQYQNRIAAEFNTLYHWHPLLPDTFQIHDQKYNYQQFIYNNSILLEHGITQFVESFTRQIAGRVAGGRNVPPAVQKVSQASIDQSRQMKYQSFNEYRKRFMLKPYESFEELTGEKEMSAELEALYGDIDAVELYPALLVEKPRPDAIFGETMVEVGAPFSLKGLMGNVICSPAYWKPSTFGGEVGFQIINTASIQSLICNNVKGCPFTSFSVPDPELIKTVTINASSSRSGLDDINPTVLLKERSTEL

[2] = system: reconstituted human epidermis (RHE) tissues; experiment: IL-8 levels in RHE-conditioned medium; format: cell-based; conditions: 48 hours
[3] = system: reconstituted human epidermis (RHE) tissues; experiment: Cortisol in RHE-conditioned medium; format: cell-based; conditions: 48 hours, with or without cell viability standardization
[4] = system: CB1 receptor; conditions: ref Vučković et al., 2018; cited from earlier work
[5] = system: CB2 receptor; conditions: ref Vučković et al., 2018; cited from earlier work
[6] = ref Nelson et al., 2020; cited from earlier work
[7] = ref Jaidee et al., 2021; cited from earlier work
[8] = system: TNF-stimulated neonatal human epidermal KCs; experiment: Microarray gene expression in TNF-stimulated keratinocytes; format: cell-based

C=C[C@@](C)(/C=C/c1ccc(O)cc1)CCC=C(C)C [BAK, bakuchiol]
IC50 [1]: 12.9 µM
IL-8 levels in RHE-conditioned medium [2]: decreased IL-8
cortisol levels in RHE-conditioned medium [3]: significantly decreased cortisol levels

C=C(C)[C@@H]1CCC(C)=C[C@H]1c1c(O)cc(CCCCC)cc1O [CBD, cannabidiol]
affinity for the CB1 receptor [4]: little affinity
affinity for the CB2 receptor [5]: little affinity
octanol-water partition coefficient [6]: high
stability at room temperature [7]: unstable at room temperature
average increase in the expression of unhealthy skin signature genes ([8]; TNF-stimulated KCs): 5%
number of genes decreased ([8]; vs TNF, FDR < 0.10 with FC < 0.80): 114 genes
number of genes increased ([8]; vs TNF, FDR < 0.10 with FC > 1.25): 205 genes
number of genes with altered expression ([8]; vs TNF, FDR < 0.10 with FC > 1.25 or FC < 0.80): 319 genes
cortisol levels in RHE-conditioned medium [3]: not observed
